Values joined by “and” are separate entries in the source; they are usually repeats but may differ in a detail not shown here. Identical values can stand only once.
Experiments:
[1] = system: BALB/c mice injected i.p. with LPS (E. coli 026:B6); assay: LPS-induced septic shock (endotoxin model) in BALB/c mice; type: in vivo, mouse; set-up: key to Sickness score of individual mouse: 0: No abnormalities.; 1: Percolated fur, but no detectable behavior differences compared to normal mice.; 2: Percolated fur, huddle reflex, responds to stimuli (such as tap on cage), just as active during handling as healthy mouse.; 3: Slower response to tap on cage, passive or docile when handled, but still curious when alone in a new setting.; 4: Lack of curiosity, little or no response to stimuli, quite immobile.; 5: Labored breathing, inability or slow to self-right after being rolled onto back (moribund, sacrificed).; Dead; settings: for number of mice with sickness score 1 / number of mice with sickness score 2: peptide twice (t = 2 hr and 24 hr) 5 mg/kg; for Survival %: group of 6, 48 hrs
Protocol: Mice used in sepsis or septic shock experiments: Female BALB/c mice of 8-12 weeks of age were used for all experiments. The animals were bred in our facility under specific pathogen-free conditions according to the protocols described in the Report of European Laboratory Animal Science Associations (FELASA) Working group on Animal Health (Laboratory Animals 28: 1-24, 1994).
Injection protocols: For the endotoxin model, BALB/c mice were injected i.p. with 150-300 μg LPS (E. coli 026:B6; Difco Lab., Detroit, Mich., USA). Control groups were treated with PBS i.p. only. To test the effect of peptides, they were dissolved in PBS and injected i.p. at predetermined points in time after LPS treatment.
Mice were scored for sickness severity using the following measurement scheme: • 0 No abnormalities. • 1 Percolated fur, but no detectable behavior differences compared to normal mice. • 2 Percolated fur, huddle reflex, responds to stimuli (such as tap on cage), just as active during handling as healthy mouse. • 3 Slower response to tap on cage, passive or docile when handled, but still curious when alone in a new setting. • 4 Lack of curiosity, little or no response to stimuli, quite immobile. • 5 Labored breathing, inability or slow to self-right after being rolled onto back (moribund, sacrificed). • D Dead […]
A comparative trial was set up to compare peptide MTR and SEQ ID NO:2. The comparative trial comprised 6 groups of 6 animals; two groups (1A and 1B) receiving placebo (PBS), one group (2) peptide MTR (source Pepscan, Lelystad, NL), one group (3) receiving peptide MTR (source Ansynth), one group (4) receiving peptide SEQ ID NO:2 (source Pepscan) and one group peptide SEQ ID NO:2 (source Ansynth). Peptide/placebo in these groups was administered 2 hours after LPS. LPS (source) was used at 10-11 mg/kg. Sickness scores were done at 0, 2, 22 26 42 and 48 hours after LPS injection.

[2] = system: RAW 264.7 murine macrophage cell line; assay: Nitrite (NO) production in LPS-stimulated RAW 264.7 macrophages; type: cell-based; settings: co-stimulated with LPS 10 microg/ml, peptide even at 1 pg/ml, 24 hours
Protocol: Cell culture. The RAW 264.7 murine macrophage cell line, obtained from American Type Culture Collection (Manassas, Va., USA), were cultured at 37° C. in 5% CO2 using DMEM containing 10% fetal calf serum (FCS), 50 U/ml penicillin, 50 μg/ml streptomycin, […] Na-pyruvate, 2 mM glutamine and 50 μM 2-mercaptoethanol (Bio Whittaker, Europe). The medium was changed every 2 days.
Nitrite measurements. Nitrite production was measured in the RAW 264.7 macrophage supernatants. The cells (7.5×10^5/ml) were cultured in 48-well plates in […] of culture medium. The cells were stimulated with LPS (10 microg/ml) and/or peptide (1 pg/ml, 1 ng/ml, 1 μg/ml) for 24 hours, then the culture media were collected. Nitrite was measured by adding 100 microl of Griess reagent (Sigma) to 100 microl samples of culture medium. The OD540 was measured using a microplate reader, and the nitrite concentration was calculated by comparison with the OD540 produced using standard solutions of sodium nitrite in the culture medium.

[3] = 5 mg/kg i.p. given both early (2 hours) or late (24 hours)

## AQGV [tetrapeptide derived from human chorionic gonadotropin, alanine replacement of LQGV]
[1]; [3]
  clinical signs of shock at 84 hours after LPS-treatment: no remaining clinical signs of shock
  survival at 84 hours after LPS-treatment: 100%
[1]; LPS dose 10.5, t = 24 hr
  number of mice with sickness score 1: 2
  number of mice with sickness score 2: 3
[1]; LPS dose 10.5, t = 48 hr
  number of mice with sickness score 1: 5
[1]; LPS dose 11, t = 24 hr
  number of mice with sickness score 1: 2
  number of mice with sickness score 2: 4
[1]; LPS dose 11, t = 48 hr
  number of mice with sickness score 1: 6
[1]; single injection 5 mg/kg 2 hours after LPS (300 μg), time 0 hours
  % survival: 100%
[1]; single injection 5 mg/kg 2 hours after LPS, time 14 hours
  % survival: 100%
[1]; single injection 5 mg/kg 2 hours after LPS, time 24 hours
  % survival: 100%
[1]; single injection 5 mg/kg 2 hours after LPS, time 48 hours
  % survival: 100%
[1]; single injection 5 mg/kg 2 hours after LPS, time 84 hours
  % survival: 100%
[1]; single injection 5 mg/kg 24 hours after LPS (300 μg), time 0 hours
  % survival: 100%
[1]; single injection 5 mg/kg 24 hours after LPS, time 14 hours
  % survival: 100%
[1]; single injection 5 mg/kg 24 hours after LPS, time 24 hours
  % survival: 100%
[1]; single injection 5 mg/kg 24 hours after LPS, time 48 hours
  % survival: 100%
[1]; single injection 5 mg/kg 24 hours after LPS, time 84 hours
  % survival: 100%
[1]; source Ansynth (#Ansynth 12/46) 2 hours after LPS 10-11 mg/kg, 0 hrs (before peptide)
  Sickness score of individual mouse: 0
[1]; source Ansynth (#Ansynth 12/46) 2 hours after LPS 10-11 mg/kg, 2 hrs (at peptide administration)
  Sickness score of individual mouse: 2
[1]; source Ansynth (#Ansynth 12/46) 2 hours after LPS 10-11 mg/kg, 22 hrs
  Sickness score of individual mouse: 3 (2×) and 2 (3×) and 4
[1]; source Ansynth (#Ansynth 12/46) 2 hours after LPS 10-11 mg/kg, 26 hrs
  Sickness score of individual mouse: 3 (2×) and 2 (3×) and 4
[1]; source Ansynth (#Ansynth 12/46) 2 hours after LPS 10-11 mg/kg, 42 hrs
  Sickness score of individual mouse: 2 and 3 and 1 (3×) and 5
[1]; source Ansynth (#Ansynth 12/46) 2 hours after LPS 10-11 mg/kg, 48 hrs
  Sickness score of individual mouse: 1 (5×) and dead
[1]; source Ansynth (#Ansynth 12/46) 2 hours after LPS 10-11 mg/kg
  Survival %: 83%
[1]; source Pepscan (#970/#971) 5 mg/kg 2 hours after LPS 10-11 mg/kg, 0 hrs (before peptide)
  Sickness score of individual mouse: 0
[1]; source Pepscan (#970/#971) 5 mg/kg 2 hours after LPS 10-11 mg/kg, 2 hrs (at peptide administration)
  Sickness score of individual mouse: 2
[1]; source Pepscan (#970/#971) 5 mg/kg 2 hours after LPS 10-11 mg/kg, 22 hrs
  Sickness score of individual mouse: 2 (4×) and 3 and 4
[1]; source Pepscan (#970/#971) 5 mg/kg 2 hours after LPS 10-11 mg/kg, 26 hrs
  Sickness score of individual mouse: 2 (3×) and 3 (2×) and 5
[1]; source Pepscan (#970/#971) 5 mg/kg 2 hours after LPS 10-11 mg/kg, 42 hrs
  Sickness score of individual mouse: 2 (5×) and dead
[1]; source Pepscan (#970/#971) 5 mg/kg 2 hours after LPS 10-11 mg/kg, 48 hrs
  Sickness score of individual mouse: 2 (3×) and 1 (2×)
[1]; source Pepscan (#970/#971) 5 mg/kg 2 hours after LPS 10-11 mg/kg
  Survival %: 83%
[2]
  NO production: inhibited the production of NO
